Test results: US10472663B2, “Procedure for the rapid determination of bacterial susceptibility to antibiotics that inhibit protein synthesis” (ABM TECHNOLOGIES, LLC, priority 2015, dated 2019)
Converted amounts (≈) assume the structure as drawn.

Legend:
[1] = test system: H. influenzae; experiment: Cell enlargement by low-dose mitomycin C after azithromycin; type: cell-based, Haemophilus influenzae; conditions: azithromycin 4 μg/ml 30 min followed by mitomycin C 0.5 μg/ml 120 min; azithromycin-resistant strain
Experimental: In one exemplification, two strains of H. influenzae exponentially growing in Mueller-Hinton broth were incubated under four differing treatments and then assayed. One strain was susceptible and the other resistant to the macrolide azithromycin (an inhibitor of protein synthesis). For the purpose of rapidly distinguishing the susceptible and the resistant strain to azithromycin each strain was incubated under four sets of conditions.
A portion of each strain was incubated with azithromycin at 4 μg/ml for 150 minutes. The dose azithromycin corresponded to the dose indicated by the CLSI as the breakpoint of susceptibility to azithromycin in the standard antibiograms based on microdilution. Another portion of each strain was incubated with Mitomycin C at 0.5 μg/ml for 120 minutes. Still another portion was incubated with azithromycin at 4 μg/ml for 30 min followed by mitomycin C at 0.5 μg/ml for 120 min, without removing the azithromycin. A final portion of each strain was not incubated with any antibiotics.

[2] = test system: S. pneumoniae; experiment: MIC, standard antibiogram based on microdilution; type: cell-based; conditions: Streptococcus pneumoniae
Experimental: (§1) A quantitative method may rely on dilution in a series of broths or agar solutions having progressively lower concentrations of the antibiotic in question. The lowest concentration of antibiotic in which the bacteria cannot grow provides the minimum inhibitory concentration of that antibiotic to the tested strain of bacteria. This quantitative method may be routinely employed in the hospitals, usually using commercial panels of antibiotics and semi-automated systems of incubation and software for data interpretation like the MicroScan WalkAway™ (Siemens), Phoenix (Becton Dickinson), or Vitek™ 2 (bioMérieux). With such growth-dependent automated systems, results of susceptibility or resistance to antimicrobians from a specific microorganism may be obtained in around 6-9 hours.
(§2) In an exemplification of this principal, two strains of S. pneumoniae growing in Mueller-Hinton II broth complemented with cations and 2-5% lysed horse blood, at 37° C. with 5% CO2, were assayed. […] The purpose of the assay was to distinguish rapidly the susceptible and the resistant (i.e. non-susceptible) strain to azithromycin.

[3] = test system: Staphylococcus aureus; experiment: Micromax assay of DNA fragmentation by DNase released with lysostaphin after azithromycin (Example 3); type: cell-based; conditions: for DNA fragmentation of released nucleoids: azithromycin 2 μg/ml 120 min followed by lysostaphin 10 μg/ml 1 min
Experimental: In an exemplification of this principal, two strains of S. aureus growing in Mueller-Hinton agar with 5% sheep blood were assayed. One strain was susceptible to the macrolide azithromycin (an inhibitor of protein synthesis) (FIGS. 13-15) and the other strain was a clinical isolate resistant to azithromycin (FIGS. 16-18). The purpose was to rapidly distinguish susceptible and non-susceptible strains to azithromycin. Cultures were processed direct from standard growing agar plates 18-24 h and it was not necessary the cells being exponentially growing previously to the assay.
Each of these strain was subjected to four treatments. One portion of both strains was incubated with azithromycin at 2 μg/ml for 120 min; 2 μg/ml being indicated by the CLSI as the breakpoint of susceptibility to azithromycin. The cells were then lysed to release nucleoids and images of FIGS. 13 and 16 were generated. Another portion of each strain was incubated with lysostaphin at 10 μg/ml for 1 min. FIGS. 14 and 17 depict the nucleoids released in each strain for this treatment. Still another portion was incubated with Azithromycin at 2 μg/ml for 120 min followed by lysostaphin at 10 μg/ml for 1 min, without removing the azithromycin. The assays for these treatments can be seen at FIGS. 15 and 18. A final portion was left without either antibiotic.
After the incubation, the cells were processed using the variant of a Micromax technology to lyse cells with affected cell walls. As indicated previously, samples from cells from the culture are immersed in an agarose microgel on a slide and incubated with a specific lysing solution to remove the cell wall in those cells affected by lysostaphin and release in the microgel the nucleoids contained inside the bacteria. These are dried, stained with a highly sensitive fluorochrome for DNA like SYBR Gold and visualized under fluorescence microscopy.

[4] = test system: S. pneumoniae; experiment: Micromax assay of autolysis and DNA fragmentation induced by Triton-lysozyme-EDTA after azithromycin (Example 4); type: cell-based, Streptococcus pneumoniae; conditions: for cells lysed and with fragmented DNA: azithromycin 0.5 μg/ml 60 min followed by Triton-lysozyme-EDTA 5 min; for less fragmentation than incubation with Triton-lysozyme-EDTA alone: azithromycin 0.5 μg/ml 60 min followed by Triton-lysozyme-EDTA
Experimental: as §2
Each of these two strains were subjected to four treatments. A first portion of both strains was incubated with azithromycin at a concentration of 0.5 μg/ml for 60 min. The dose was that indicated by the CLSI as the breakpoint of susceptibility to azithromycin in the standard antibiogram based on microdilution. Another portion of both strains was incubated with 0.05% Triton X-100, 2 mg/ml lysozyme, 25 mM EDTA, 5 min. Still another portion of each strain was incubated with azithromycin at 0.5 μg/ml for 60 min followed by 0.05% Triton X-100, 2 mg/ml lysozyme, 25 mM EDTA, 5 min, without removing the azithromycin. A final portion of each strain remained without any antibiotics.
After incubation cells were processed using the variant of the Micromax technology to visualize the nucleoids. In the same manner indicated previously, samples from cells from the culture are immersed in an agarose microgel on a slide and incubated with a specific lysing solution to remove the cell wall in all the cells and release in the microgel the nucleoids contained inside the bacteria. […] The microgels are dried, stained with a high sensitive fluorochrome for DNA like SYBR Gold and visualized under fluorescence microscopy.

[5] = test system: Enterococcus faecalis; experiment: Variant Micromax assay of cell lysis by lysozyme after erythromycin (Example 6); type: cell-based; conditions: for lysed cells: erythromycin 0.5 μg/ml 75 min, lysozyme 1 mg/ml during last 10 min
Experimental: (§3) As an example, two strains of Enterococcus faecalis exponentially growing in Mueller-Hinton broth were incubated under four different conditions and then assayed. […] Each strain was subjected to four treatments for the purpose of rapidly distinguishing the susceptible and the resistant strain to erythromycin.
The dose was that indicated by the CLSI as the breakpoint of susceptibility to erythromycin in the standard antibiogram based on microdilution. Another portion of both strains was incubated with lysozyme 1 mg/ml, 10 min at 37° C. […]
After incubation with lysozyme, the cells were processed using a variant of the Micromax technology to visualize the nucleoids, i.e. spreading of the bacterial chromosomal DNA, in all the cells of the population. Samples from the cultures were immersed in an agarose microgel on a slide and incubated with a specific lysing solution to remove the cell wall in all the cells and release in the microgel the nucleoids contained inside the bacteria. These are dried, stained with a highly sensitive fluorochrome for DNA like SYBR Gold and visualized under fluorescence microscopy.

[6] = test system: Enterococcus faecalis; experiment: MIC, standard antibiogram based on microdilution; type: cell-based
Experimental: as §1, §3

[7] = azithromycin-susceptible strain
[8] = erythromycin-susceptible strain

MIC ([2]; azithromycin-resistant strain) | MIC [2, 7] | SMILES | cell enlargement [1] | DNA fragmentation of released nucleoids ([3]; azithromycin-resistant clinical isolate) | DNA fragmentation of released nucleoids [3, 7] | modification of the appearance of the bacteria ([3]; azithromycin alone 2 μg/ml 120 min, both strains) | cells lysed and with fragmented DNA ([4]; resistant strain) | cells lysed and with fragmented DNA ([4]; susceptible strain) | less fragmentation than incubation with Triton-lysozyme-EDTA alone ([4]; resistant strain) | less fragmentation than incubation with Triton-lysozyme-EDTA alone ([4]; susceptible strain) | modification of the bacteria ([4]; azithromycin alone 0.5 μg/ml 60 min, both strains) | lysed cells ([5]; erythromycin-resistant strain) | lysed cells [5, 8] | response pattern in further Enterococcus strains ([5]; four more erythromycin-susceptible and thirteen more erythromycin-resistant strains) | MIC ([6]; erythromycin-resistant strain) | MIC [6, 8]
> 32 µg/mL | 0.25 µg/mL (≈ 0.334 µM) | CC[C@H]1OC(=O)[C@H](C)[C@@H](O[C@H]2C[C@@](C)(OC)[C@@H](O)[C@H](C)O2)[C@H](C)[C@@H](O[C@@H]2O[C@H](C)C[C@H](N(C)C)[C@H]2O)[C@](C)(O)C[C@@H](C)CN(C)[C@H](C)[C@@H](O)[C@]1(C)O [azithromycin] | the bacteria appeared enlarged | a large extend of DNA fragmentation | strongly reduced level of DNA fragmentation or even suppression of DNA fragmentation | did not result in modification of the appearance of the bacteria | 86% | about 40% | 7% | 44% | did not result in modification of the bacteria | – | – | – | – | –
– | – | CC[C@H]1OC(=O)[C@H](C)[C@@H](O[C@H]2C[C@@](C)(OC)[C@@H](O)[C@H](C)O2)[C@H](C)[C@@H](O[C@@H]2O[C@H](C)C[C@H](N(C)C)[C@H]2O)[C@](C)(O)C[C@@H](C)C(=O)[C@H](C)[C@@H](O)[C@]1(C)O [erythromycin] | – | – | – | – | – | – | – | – | – | 96.77% | 3.87% | a similar response pattern has been reproduced | > 128 µg/mL | 0.125 µg/mL (≈ 0.17 µM)
